Earlier results as cited in patent US8993607B2, “Therapeutic compounds” (Rutgers, The State University of New Jersey, priority 2007, dated 2015).

What was measured:
[1] = system: human breast cancer cell lines HBC-4, BSY-1, HBC-5, MCF-7, and MDA-MB-231; conditions: range over HBC-4, BSY-1, HBC-5, MCF-7, MDA-MB-231; Sohda et al., 2005
telomerase = conditions: read-out: telomerase inhibitory activity IC50
SK-N-AS = conditions: human neuroblastoma cell line SK-N-AS; Binz et al., 2005; read-out: cytotoxicity IC50
LANS = conditions: human neuroblastoma cell line LANS; Binz et al., 2005; read-out: cytotoxicity IC50
WAC2 = conditions: human neuroblastoma cell line WAC2; Binz et al., 2005; read-out: cytotoxicity IC50
LAN1 = conditions: human neuroblastoma cell line LAN1; Binz et al., 2005; read-out: cytotoxicity IC50
MiaPaCa = conditions: human pancreatic carcinoma MiaPaCa; Liu et al., 2005; read-out: cytotoxicity IC50
K62 leukemia cells = conditions: Tauchi et al., 2003
[2] = system: natural bone marrow CD34-positive cells; conditions: compared, Tauchi et al., 2003

CC[C@H](C)[C@@H]1NC(=O)c2nc(oc2-c2ccccc2)-c2csc(n2)-c2coc(n2)-c2coc(n2)-c2coc(n2)CNC(=O)[C@@H](C(C)C)NC1=O [YM-216391]
GI50 [1]: 15 to 33 nM

Cc1oc2nc1-c1nc(co1)-c1nc(co1)-c1nc(co1)-c1nc(co1)-c1nc(co1)C1=NC(CS1)c1nc-2c(C)o1 (stereo not drawn) [telomestatin]
IC50 (telomerase): 5 nM | IC50 (SK-N-AS): 800 nM | IC50 (LANS): 2500 nM | IC50 (WAC2): 3200 nM | IC50 (LAN1): 4000 nM | IC50 (MiaPaCa): 500 nM | plating efficiency (K62 leukemia cells): suppress the plating efficiency | effect on burst-forming units—erythrocyte (BFU-E) and colony-forming units—granulocyte/macrophage (CFU-GM) [2]: much lesser effect
